Target: Sodium-dependent dopamine transporter (Rattus norvegicus, UniProt P23977)
Assay: Displacement of [3H]WIN-35428 from dopamine transporter of rat caudate putamen tissue
Type: tissue-based

Sodium-dependent dopamine transporter, sequence (P23977 whole entry): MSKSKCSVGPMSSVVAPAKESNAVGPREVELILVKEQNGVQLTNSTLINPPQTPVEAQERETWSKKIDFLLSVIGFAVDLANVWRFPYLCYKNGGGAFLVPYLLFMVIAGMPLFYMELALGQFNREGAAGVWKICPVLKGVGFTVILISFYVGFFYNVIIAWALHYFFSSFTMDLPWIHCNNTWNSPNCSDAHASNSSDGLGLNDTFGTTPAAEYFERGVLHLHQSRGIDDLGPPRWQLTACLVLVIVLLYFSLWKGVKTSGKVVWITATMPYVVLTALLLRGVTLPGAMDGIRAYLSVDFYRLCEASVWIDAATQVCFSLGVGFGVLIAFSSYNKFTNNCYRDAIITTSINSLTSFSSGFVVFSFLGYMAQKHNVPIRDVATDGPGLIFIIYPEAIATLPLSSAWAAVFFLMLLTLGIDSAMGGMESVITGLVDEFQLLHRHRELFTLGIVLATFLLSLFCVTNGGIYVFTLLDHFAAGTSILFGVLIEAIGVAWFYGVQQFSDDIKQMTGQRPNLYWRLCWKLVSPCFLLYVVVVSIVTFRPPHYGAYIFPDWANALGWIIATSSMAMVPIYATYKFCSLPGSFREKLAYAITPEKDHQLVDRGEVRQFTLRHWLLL

Structure (SMILES)	Ki [nM]
Fc1ccc(C(OCCC2CCN(CCCc3ccccc3)CC2)c2ccc(F)cc2)cc1	25
Clc1ccc(C(OCCN2C3CCC2CC(Cc2ccccc2)C3)c2ccc(Cl)cc2)cc1 (centres undefined)	346
Clc1ccc(C(OCCN2C3CCC2CC(Cc2ccccc2)C3)c2ccccc2)cc1 (centres undefined)	198
Fc1ccc(C(OCCN2CCC(CCCc3ccccc3)CC2)c2ccc(F)cc2)cc1	595
COc1ccc(C(OCCN2C3CCC2CC(Cc2ccccc2)C3)c2ccc(OC)cc2)cc1 (centres undefined)	135
c1ccc(CN2C3CCC2CC(CCOC(c2ccccc2)c2ccccc2)C3)cc1 (centres undefined)	99
Cc1ccc(C(OCCN2C3CCC2CC(Cc2ccccc2)C3)c2ccc(C)cc2)cc1 (centres undefined)	217
Fc1ccc(C(OCCN2C3CCC2CC(Cc2ccccc2)C3)c2ccc(F)cc2)cc1 (centres undefined)	144
c1ccc(CC2CC3CCC(C2)N3CCOC(c2ccccc2)c2ccccc2)cc1 (centres undefined)	98

From ChEMBL document CHEMBL1134895, “Synthesis and dopamine transporter binding affinities of 3alpha-benzyl-8-(diarylmethoxyethyl)-8-azabicyclo[3.2.1]octanes” (Bioorg Med Chem Lett, 2002)
